In this experiment the target is human orexin-2 receptor (Homo sapiens (Human), UniProt O43614). Nature of the experiment: FLIPR Ca2+ Flux Assay, orexin-2 receptor. The experiment is classed as cell-based. As to conditions: CHO cells expressing the human orexin-2 receptor; agonist 70 pM Ala-6,12 orexin-A; read-out: hOX2R FLIPR IC50. The protocol:
In a typical experiment the OX1 and OX2 receptor antagonistic activity of the compounds of the present invention was determined in accordance with the following experimental method. For intracellular calcium measurements, Chinese hamster ovary (CHO) cells expressing the rat orexin-1 receptor or the human orexin-2 receptor, are grown in Iscove's modified DMEM containing 2 mM L-glutamine, […], 1% hypoxanthine-thymidine supplement, 100 U/ml penicillin, 100 μg/ml streptomycin and 10% heat-inactivated fetal calf serum (FCS). The cells are seeded at 20,000 cells/well into Becton-Dickinson black 384-well clear bottom sterile plates coated with poly-D-lysine. All reagents were from GIBCO-Invitrogen Corp. The seeded plates are incubated overnight at 37° C. and 5% CO2. Ala-6,12 human orexin-A as the agonist is prepared as a 1 mM stock solution in 1% bovine serum albumin (BSA) and diluted in assay buffer (HBSS containing 20 mM HEPES, 0.1% BSA and 2.5 mM probenecid, pH7.4) for use in the assay at a final concentration of 70 pM. Test compounds are prepared as 10 mM stock solution in DMSO, then diluted in 384-well plates, first in DMSO, then assay buffer. On the day of the assay, cells are washed 3 times with 100 μl assay buffer and then incubated for 60 min (37° C., 5% CO2) in 60 μl assay buffer containing 1 μM Fluo-4AM ester, 0.02% pluronic acid, and 1% BSA. The dye loading solution is then aspirated and cells are washed 3 times with 100 μl assay buffer. 30 μl of that same buffer is left in each well. Within the Fluorescent Imaging Plate Reader (FLIPR, Molecular Devices), test compounds are added to the plate in a volume of 25 μl, incubated for 5 min and finally 25 μl of agonist is added. Fluorescence is measured for each well at 1 second intervals for 5 minutes and the height of each fluorescence peak is compared to the height of the fluorescence peak induced by 70 pM Ala-6,12 orexin-A with buffer in place of antagonist. For each antagonist, IC50 value (the concentration of compound needed to inhibit 50% of the agonist response) is determined. Alternatively, compound potency can be assessed by a radioligand binding assay (described in Bergman et. al. Bioorg. Med. Chem. Lett. 2008, 18, 1425-1430) in which the inhibition constant (Ki) is determined in membranes prepared from CHO cells expressing either the OX1 or OX2 receptor. The intrinsic orexin receptor antagonist activity of a compound which may be used in the present invention may be determined by these assays.
A general note: Calcium flux is commonly read through the fluorescence of an indicator in the cells.

Structures are written as SMILES.

Drawing on patent US10011595B2 (Merck Sharp & Dohme Corp., priority 2014, dated 2018), this text covers IC50 for 31 compounds.

Chain of human orexin-2 receptor (O43614 whole entry): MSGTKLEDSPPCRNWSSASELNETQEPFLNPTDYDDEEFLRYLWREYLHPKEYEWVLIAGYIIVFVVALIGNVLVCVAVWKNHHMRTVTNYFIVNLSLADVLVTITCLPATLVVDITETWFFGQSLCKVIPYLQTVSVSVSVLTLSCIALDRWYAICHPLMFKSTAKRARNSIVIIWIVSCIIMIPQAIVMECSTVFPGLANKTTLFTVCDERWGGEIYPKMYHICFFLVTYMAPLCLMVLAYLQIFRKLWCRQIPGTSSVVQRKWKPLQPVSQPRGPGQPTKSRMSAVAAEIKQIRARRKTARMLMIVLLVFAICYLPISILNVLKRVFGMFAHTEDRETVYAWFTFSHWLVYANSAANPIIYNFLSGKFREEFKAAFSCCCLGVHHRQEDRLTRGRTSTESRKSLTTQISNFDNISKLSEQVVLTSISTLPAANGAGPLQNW

In general, IC50 refers to the concentration that inhibits the measured activity by half. For `CCN(CCN(C)c1nc(C)cc(C)n1)C(=O)c1ccccc1-n1nccn1` [Example A-1, N-(2-((4,6-dimethylpyrimidin-2-yl)(methyl)amino)ethyl)-N-ethyl-2-(2H-1,2,3-triazol-2-yl)benzamide], the IC50 is 36.5 nM.
With `CCN(CCNc1nc(C)cc(C)n1)C(=O)c1ccccc1-n1nccn1` [Example A-5, N-(2-((4,6-dimethylpyrimidin-2-yl)amino)ethyl)-N-ethyl-2-(2H-1,2,3-triazol-2-yl)benzamide] the figure was 1760 nM; with `CCN(CCN(C)c1nc(C)cc(C)n1)C(=O)c1ccccc1C1CC1` [Example B-1, 2-cyclopropyl-N-(2-((4,6-dimethylpyrimidin-2-yl)(methyl)amino)ethyl)-N-ethylbenzamide], 26.4 nM.
The value for `CCN(CCN(C)c1nc(C)cc(C)n1)C(=O)c1cccnc1OC(C)C` [Example B-5, N-(2-((4,6-dimethylpyrimidin-2-yl)(methyl)amino)ethyl)-N-ethyl-2-isopropoxynicotinamide] was 80 nM; that for `CCOc1ncccc1C(=O)N(CC)CCN(C)c1nc(C)cc(C)n1` [Example B-6, N-(2-((4,6-dimethylpyrimidin-2-yl)(methyl)amino)ethyl)-2-ethoxy-N-ethylnicotinamide] was 68.1 nM; that for `CCN(CCN(C)c1nc(C)cc(C)n1)C(=O)c1ccccc1OC(F)(F)F` [Example B-7, N-(2-((4,6-dimethylpyrimidin-2-yl)(methyl)amino)ethyl)-N-ethyl-2-(trifluoromethoxy)benzamide] was 9.4 nM.
Turning to `CCN(CCN(C)c1nc(C)cc(C)n1)C(=O)c1ccccc1OC(F)F` [Example B-8, 2-(difluoromethoxy)-N-(2-((4,6-dimethylpyrimidin-2-yl)(methyl)amino)ethyl)-N-ethylbenzamide], the IC50 is 18.5 nM.
With `CCN(CCN(C)c1nc(C)cc(C)n1)C(=O)c1cccnc1-c1ccccc1` [Example B-9, N-(2-((4,6-dimethylpyrimidin-2-yl)(methyl)amino)ethyl)-N-ethyl-2-phenylnicotinamide] the figure was 26.4 nM.
With `CCN(CCN(C)c1nc(C)cc(C)n1)C(=O)c1cccnc1OCC(F)F` [Example B-10, 2-(2,2-difluoroethoxy)-N-(2-((4,6-dimethylpyrimidin-2-yl)(methyl)amino)ethyl)-N-ethylnicotinamide] the figure was 40.6 nM; with `CCN(CCN(C)c1nc(C)cc(C)n1)C(=O)c1cccnc1OCC(F)(F)F` [Example B-11, N-(2-((4,6-dimethylpyrimidin-2-yl)(methyl)amino)ethyl)-N-ethyl-2-(2,2,2-trifluoroethoxy)nicotinamide], 19.8 nM; with `CCN(CCN(C)c1nc(C)cc(C)n1)C(=O)c1ccc(F)cc1-n1nccn1` [Example B-12, N-(2-((4,6-dimethylpyrimidin-2-yl)(methyl)amino)ethyl)-N-ethyl-4-fluoro-2-(2H-1,2,3-triazol-2-yl)benzamide], 12.6 nM.
With `CCOc1ccccc1C(=O)N(CC)CCN(C)c1nc(C)cc(C)n1` [Example B-13, N-(2-((4,6-dimethylpyrimidin-2-yl)(methyl)amino)ethyl)-2-ethoxy-N-ethylbenzamide] the figure was 16 nM.
On to `CCN(CCN(C)c1nc(C)cc(C)n1)C(=O)c1ccccc1-n1cccn1` [Example B-14, N-(2-((4,6-dimethylpyrimidin-2-yl)(methyl)amino)ethyl)-N-ethyl-2-(1H-pyrazol-1-yl)benzamide], for which the half-inhibitory concentration (IC50) was found to be 13.9 nM.
The value for `CCN(CCN(C)c1nc(C)cc(C)n1)C(=O)c1nccnc1-n1nccn1` [Example B-15, N-(2-((4,6-dimethylpyrimidin-2-yl)(methyl)amino)ethyl)-N-ethyl-3-(2H-1,2,3-triazol-2-yl)pyrazine-2-carboxamide] was 1270 nM.
For `CCCc1ccccc1C(=O)N(CC)CCN(C)c1nc(C)cc(C)n1` [Example B-16, N-{2-[(4,6-dimethylpyrimidin-2-yl)(methyl)amino]ethyl}-N-ethyl-2-propylbenzamide], the IC50 is 19.9 nM.
With `CCN(CCN(C)c1nc(C)cc(C)n1)C(=O)c1ccccc1OCC(F)(F)F` [Example B-17, N-{2-[(4,6-dimethylpyrimidin-2-yl)(methyl)amino]ethyl}-N-ethyl-2-(2,2,2-trifluoroethoxy)-benzamide] the figure was 11.2 nM; with `CCN(CCN(C)c1nc(C)cc(C)n1)C(=O)c1ccccc1CC(F)(F)F` [Example B-18, N-{2-[(4,6-dimethylpyrimidin-2-yl)(methyl)amino]ethyl}-N-ethyl-2-(2,2,2-trifluoroethyl)benzamide], 36.2 nM; with `CCN(CCN(C)c1nc(C)cc(C)n1)C(=O)c1ccc(OC)nc1C1CC1` [Example B-19, 2-cyclopropyl-N-{2-[(4,6-dimethylpyrimidin-2-yl)(methyl)amino]ethyl}-N-ethyl-6-methoxypyridine-3-carboxamide], 32.1 nM.
With `CCN(CCN(C)c1nc(C)cc(C)n1)C(=O)c1ccccc1OCC(F)F` [Example B-20, 2-(2,2-difluoroethoxy)-N-{2-[(4,6-dimethylpyrimidin-2-yl)(methyl)amino]ethyl}-N-ethylbenzamide] the figure was 9.2 nM.
With `CCN(CCN(C)c1nc(C)cc(C)n1)C(=O)c1cccnc1CC(F)(F)F` [Example B-21, N-{2-[(4,6-dimethylpyrimidin-2-yl)(methyl)amino]ethyl}-N-ethyl-2-(2,2,2-trifluoroethyl)pyridine-3-carboxamide] the figure was 424 nM.
In the case of `CCN(CCN(C)c1nc(C)cc(C)n1)C(=O)c1ncccc1-n1nccn1` [Example B-22, N-{2-[(4,6-dimethylpyrimidin-2-yl)(methyl)amino]ethyl}-N-ethyl-3-(2H-1,2,3-triazol-2-yl)pyridine-2-carboxamide], the IC50 came out at 32.4 nM.
As to `CCN(CCN(C)c1nc(C)cc(C)n1)C(=O)c1ccccc1CC(F)F` [Example B-23, 2-(2,2-difluoroethyl)-N-{2-[(4,6-dimethylpyrimidin-2-yl)(methyl)amino]ethyl}-N-ethylbenzamide], the IC50 worked out at 94.9 nM.
The value for `CCN(CCN(C)c1nc(C)cc(C)n1)C(=O)c1cccnc1-n1cccn1` [Example B-24, N-{2-[(4,6-dimethylpyrimidin-2-yl)(methyl)amino]ethyl}-N-ethyl-2-(1H-pyrazol-1-yl)pyridine-3-carboxamide] was 12.8 nM; that for `CCN(CCN(C)c1nc(C)cc(C)n1)C(=O)c1nccnc1N1CCCC1` [Example B-25, N-{2-[(4,6-dimethylpyrimidin-2-yl)(methyl)amino]ethyl}-N-ethyl-3-pyrrolidin-1-ylpyrazine-2-carboxamide] was 324 nM; that for `CCN(CCN(C)c1nc(C)cc(C)n1)C(=O)c1ccccc1C1CCC1` [Example B-26, 2-cyclobutyl-N-{2-[(4,6-dimethylpyrimidin-2-yl)(methyl)amino]ethyl}-N-ethylbenzamide] was 20.4 nM.
With `CCN(CCN(C)c1nc(C)cc(C)n1)C(=O)c1ncccc1-c1ccccc1` [Example B-27, N-{2-[(4,6-dimethylpyrimidin-2-yl)(methyl)amino]ethyl}-N-ethyl-3-phenylpyridine-2-carboxamide] the figure was 12.5 nM; with `CCN(CCN(C)c1nc(C)cc(C)n1)C(=O)c1nccnc1-n1cccn1` [Example B-28, N-{2-[(4,6-dimethylpyrimidin-2-yl)(methyl)amino]ethyl}-N-ethyl-3-(1H-pyrazol-1-yl)pyrazine-2-carboxamide], 18.7 nM; with `CCN(CCN(C)c1nc(C)cc(C)n1)C(=O)c1ccccc1C1CC1(F)F` (stereo not shown) [Example B-29, 2-(2,2-difluorocyclopropyl)-N-{2-[(4,6-dimethylpyrimidin-2-yl)(methyl)amino]ethyl}-N-ethylbenzamide], 18.9 nM.
The value for `CCN(CCN(C)c1nc(C)cc(C)n1)C(=O)c1ccccc1N1CCCC1` [Example B-30, N-{2-[(4,6-dimethylpyrimidin-2-yl)(methyl)amino]ethyl}-N-ethyl-2-pyrrolidin-1-ylbenzamide] was 18.5 nM.
For `CCN(CCN(C)c1nc(C)cc(C)n1)C(=O)c1ccccc1-n1ncnn1` [Example B-31, N-{2-[(4,6-dimethylpyrimidin-2-yl)(methyl)amino]ethyl}-N-ethyl-2-(2H-tetrazol-2-yl)benzamide], the IC50 amounted to 8.8 nM.
The value for `CCN(CCN(C)c1nc(C)cc(C)n1)C(=O)c1ccccc1-c1ncccn1` [Example B-32, N-{2-[(4,6-dimethylpyrimidin-2-yl)(methyl)amino]ethyl}-N-ethyl-2-pyrimidin-2-ylbenzamide] was 19.5 nM.
